Experimental findings from US20020091086A1, “Peptides that block viral infectivity and methods of use thereof” (priority 1999, published 2002) are described below.

Like-named read-outs stand apart in the source and are kept apart here.

The test system of one assay is SIV. In words: SIV infectivity assay in H9 cells, RT activity in supernatant. The class given is cell-based.
Assay [1] deals with HIV-1. Particulars: H9 cells; for Day 7 RT HIV-1 / Day 10 RT HIV-1: 100 μM; for HIV-1 infection, result in words: summary of Experiments 1-5. An excerpt: (§1) In this example, the methods that were used to analyze the ability of various tripeptides to inhibit HIV-1, HIV-2, and SIV replication are disclosed. In Experiments 1 and 2, approximately 200,000 H9 cells were infected with HIV-1, HIV-2 or SIV at 25 TCID50 to test the inhibitory effect of the following synthesized tripeptides LKA-NH2, ILK-NH2, GPQ-NH2, GHK-NH2, GKG-NH2, ACQ-NH2, CQG-NH2, ARV-NH2, KAR-NH2, HKA-NH2, GAT-NH2, KAL-NH2, and GPG-NH2. Accordingly, the H9 cells were resuspended with or without the different peptides (approximately 100 μM) in 1 ml of RPMI 1640 medium supplemented with 10% (v/v) heat-inactivated fetal bovine serum (FBS), penicillin (100 u/ml), and streptomycin (100 u/ml), all available through GIBCO, and Polybrene (2 μg/ml), available through Sigma. Thereafter, viruses were added at 25 TCID50 in a volume of 20-30μl. Cells were incubated with virus at 37° C. for 1 hr then pelleted at 170×g for 7 minutes. The cells were then washed three times in RPMI medium without peptides at room temperature and pelleted at 170×g for 7 minutes, as above. After the final wash, the cells were resuspended in RPMI culture medium containing the peptides in a 24-well plate (Costar corporation) and were kept at 37° C. in 5% CO2 with humidity.
(§2) Culture supernatants were collected and analyzed when the medium was changed at 4, 7, 10, and 14 days post infection. To monitor the replication of virus, reverse transcriptase (RT) activity in the supernatants was assayed using a commercially available Lenti-RT activity kit. (Cavidi Tech, Uppsala, Sweden). The amount of RT was determined with the aid of a regression line of standards. The results are presented as absorbance values (OD) and higher absorbance indicates a higher protein concentration and greater viral infection. Syncytium formation was also monitored by microscopic examination.
In Experiment 3, (Table 4), approximately 200,000 H9 cells were infected with HIV-1, HIV-2 or SIV at 25 TCID50 to test the inhibitory effect of different concentrations of peptides GPG-NH2, GKG-NH2 and CQG-NH2 and combinations of these peptides (the indicated concentration corresponds to the concentration of each tripeptide). As above, H9 cells were resuspended with or without the different peptides at varying concentrations in 1 ml of RPMI 1640 medium supplemented with 10% (v/v) heat-inactivated fetal bovine serum (FBS), penicillin (100 u/ml), and streptomycin (100 u/ml), and Polybrene (2 μg/ml). Thereafter, viruses were added at 25 TCID50 in a volume of 20-30 μl. Cells were incubated with the indicated virus at 37° C. for 1 hr then pelleted at 170×g for 7 minutes. The cells were then washed three times in RPMI medium without peptides at room temperature and pelleted at 170×g for 7 minutes, as above. After the final wash, the cells were resuspended in RPMI culture medium containing the peptides in a 24-well plate (Costar corporation) and kept at 37° C. in 5% CO2 with humidity.
Culture supernatants were collected when the medium was changed at 4, 7, and 11 days post infection. As above, the replication of each virus was monitored by detecting reverse transcriptase (RT) activity in the supernatants using the Lenti-RT activity kit. (Cavidi Tech). The amount of RT was determined with the aid of a regression line of standards. The results are presented as absorbance values (OD) and higher absorbance indicates a higher protein concentration and greater viral infection.
In Experiment 4, (Table 5) approximately 200,000 H9 cells were infected with HIV-1 at 25 TCID50 to test the inhibitory effect of different concentrations of peptides GPG-NH2, GKG-NH2 and CQG-NH2 and combinations of these peptides (the indicated concentration corresponds to the total concentration of tripeptide).

The next assay deals with HIV-2. Put plainly: HIV-2 infectivity assay in H9 cells, RT activity in supernatant. The class given is cell-based.
In assay [2] the test system is HIV-1. The conditions noted are these: H9 cells; for HIV-1 Syncytia: 100 μM; for HIV-1 syncytia formation, result in words: summary of Experiments 1-2.
Source text: as §1, §2

Ala-Arg-Val [ARV-NH2]: the “Day 7 RT SIV” value worked out at 0.210 OD with SIV (Experiment 1, 100 μM) and 0.212 OD in the assay on SIV (Experiment 2, 100 μM). Also, the “Day 10 RT SIV” value came out at 1.172 OD in the assay with SIV (Experiment 1, 100 μM) and 3.004 OD in the assay with SIV (Experiment 2, 100 μM). For the same substance, the “Day 7 RT HIV-1” value with HIV-1 [1] (Experiment 1) worked out at 0.156 OD; in the assay on HIV-1 [1] (Experiment 2), 0.618 OD. In addition, the “Day 10 RT HIV-1” value stood at 1.528 OD in the assay with HIV-1 [1] (Experiment 1) and 2.829 OD with HIV-1 [1] (Experiment 2). Further, the “HIV-1 infection, result in words” value in the assay on HIV-1 [1] is given as “failed to prevent infection”. Besides, the “Day 7 RT HIV-2” value is reported as 3.380 OD with HIV-2 (Experiment 1, 100 μM) and 2.237 OD with HIV-2 (Experiment 2, 100 μM). Further, the “Day 10 RT HIV-2” value in the assay with HIV-2 (Experiment 1, 100 μM) came out at 3.003 OD; with HIV-2 (Experiment 2, 100 μM), 2.628 OD. Besides, the “HIV-1 Syncytia” value in the assay on HIV-1 [2] (Experiment 1) and in the assay on HIV-1 [2] (Experiment 2) was “pos” throughout.

In the case of Ala-Cys-Gln [ACQ-NH2], the “Day 7 RT SIV” value in the assay with SIV (Experiment 1, 100 μM) stood at 1.241 OD; in the assay on SIV (Experiment 2, 100 μM), 0.612 OD. Moreover, the “Day 10 RT SIV” value in the assay on SIV (Experiment 1, 100 μM) amounted to 2.746 OD; with SIV (Experiment 2, 100 μM) it was 2.606 OD. Also, the “Day 7 RT HIV-1” value in the assay with HIV-1 [1] (Experiment 1) is recorded as 0.117 OD; in the assay with HIV-1 [1] (Experiment 2) it was 0.606 OD. The “Day 10 RT HIV-1” value with HIV-1 [1] (Experiment 1) is given as 0.904 OD; in the assay with HIV-1 [1] (Experiment 2) it was 2.831 OD. Further, the “HIV-1 infection, result in words” value in the assay with HIV-1 [1] is “did not prevent HIV infection”. The “Day 7 RT HIV-2” value with HIV-2 (Experiment 1, 100 μM) worked out at 3.418 OD; in the assay with HIV-2 (Experiment 2, 100 μM) it was 1.661 OD. The “Day 10 RT HIV-2” value with HIV-2 (Experiment 1, 100 μM) was determined as 2.753 OD; in the assay on HIV-2 (Experiment 2, 100 μM), 2.505 OD. Moreover, the “HIV-1 Syncytia” value with HIV-1 [2] (Experiment 1) and with HIV-1 [2] (Experiment 2) was “pos” throughout.

In the case of Gly-Ala-Thr [GAT-NH2], the “Day 7 RT SIV” value with SIV (Experiment 1, 100 μM) came out at 0.892 OD; in the assay on SIV (Experiment 2, 100 μM), 0.572 OD. Moreover, the “Day 10 RT SIV” value with SIV (Experiment 1, 100 μM) is recorded as 2.343 OD; in the assay on SIV (Experiment 2, 100 μM), 2.776 OD. In addition, the results for the “Day 7 RT HIV-1” value in the assay on HIV-1 [1] (Experiment 1) and in the assay on HIV-1 [1] (Experiment 2) were 0.116 OD and 0.776 OD, respectively. The “Day 10 RT HIV-1” value came out at 1.565 OD with HIV-1 [1] (Experiment 1) and 2.800 OD in the assay on HIV-1 [1] (Experiment 2). Further, the “HIV-1 infection, result in words” value with HIV-1 [1] is reported as “failed to prevent infection”. For the same substance, the “Day 7 RT HIV-2” value in the assay on HIV-2 (Experiment 1, 100 μM) worked out at 3.461 OD; in the assay on HIV-2 (Experiment 2, 100 μM) it was 1.707 OD. Moreover, the “Day 10 RT HIV-2” value in the assay on HIV-2 (Experiment 1, 100 μM) stood at 2.835 OD; with HIV-2 (Experiment 2, 100 μM) it was 2.565 OD. For the same substance, the “HIV-1 Syncytia” value in the assay with HIV-1 [2] (Experiment 1) and with HIV-1 [2] (Experiment 2) was “pos” in each case. The “HIV-1 syncytia formation, result in words” value in the assay on HIV-1 [2] was “failed to prevent infection and HIV-1 syncytia formation”.

Take Gly-His-Lys [GHK-NH2]: the “Day 7 RT SIV” value is reported as 0.097 OD in the assay with SIV (Experiment 1, 100 μM) and 0.396 OD in the assay with SIV (Experiment 2, 100 μM). In addition, the “Day 10 RT SIV” value with SIV (Experiment 1, 100 μM) came out at 2.384 OD; in the assay on SIV (Experiment 2, 100 μM) it was 2.394 OD. The “Day 7 RT HIV-1” value with HIV-1 [1] (Experiment 1) is 0.289 OD; in the assay on HIV-1 [1] (Experiment 2) it was 0.829 OD. Also, the “Day 10 RT HIV-1” value in the assay with HIV-1 [1] (Experiment 1) was found to be 2.151 OD; in the assay on HIV-1 [1] (Experiment 2), 3.013 OD. Moreover, the “HIV-1 infection, result in words” value in the assay with HIV-1 [1] is reported as “failed to prevent infection”. In addition, the “Day 7 RT HIV-2” value amounted to 3.522 OD in the assay with HIV-2 (Experiment 1, 100 μM) and 1.936 OD in the assay with HIV-2 (Experiment 2, 100 μM). The “Day 10 RT HIV-2” value with HIV-2 (Experiment 1, 100 μM) was 2.931 OD; in the assay on HIV-2 (Experiment 2, 100 μM), 2.418 OD. Further, the “HIV-1 Syncytia” value in the assay on HIV-1 [2] (Experiment 1) and with HIV-1 [2] (Experiment 2) was “pos” in each case. For the same substance, the “HIV-1 syncytia formation, result in words” value with HIV-1 [2] was “failed to prevent infection and HIV-1 syncytia formation”.
